Test results from patent publication US8323622B2, “Ionic complex nanoparticles for detecting heparanase activities and method for preparing the same” (Korea Institute of Science and Technology, priority 2009, dated 2012).

Columns and labels:
[1] = target: T1, heparanase (Mus musculus, UniProt Q6YGZ1); test: Imaging of heparanase expression in SCC7 cancer model; format: in vivo; details: 20 mg/kg heparin injected into cancer tissues 20 minutes before probe; SCC7 nude mice
T1 construct: It is known that the SCC7 cancer tissues express a large amount of heparanase; from tissue; host or cells: SCC7 tumour tissue in nude mice
T1 sequence (Q6YGZ1 150-535 limits assumed): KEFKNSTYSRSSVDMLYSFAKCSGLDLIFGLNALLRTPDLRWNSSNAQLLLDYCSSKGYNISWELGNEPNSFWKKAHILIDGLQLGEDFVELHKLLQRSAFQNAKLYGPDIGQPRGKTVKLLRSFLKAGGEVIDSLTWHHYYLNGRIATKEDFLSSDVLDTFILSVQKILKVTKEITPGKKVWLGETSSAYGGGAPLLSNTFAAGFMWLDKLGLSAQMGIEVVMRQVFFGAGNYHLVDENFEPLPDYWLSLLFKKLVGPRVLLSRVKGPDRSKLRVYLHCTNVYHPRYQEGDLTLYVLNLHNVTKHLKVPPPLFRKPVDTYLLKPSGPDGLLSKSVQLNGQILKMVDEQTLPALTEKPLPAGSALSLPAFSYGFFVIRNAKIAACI
T1 sequence (Q6YGZ1 28-101 limits assumed): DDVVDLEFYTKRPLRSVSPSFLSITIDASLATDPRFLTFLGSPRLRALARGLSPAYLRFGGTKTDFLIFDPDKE
Protocol: To establish a cancer model, 1×10^6 SCC7 cancer cells were implanted in nude mice. Here, the SCC7 are epithelial cancer cells, and commercially available from American Type Culture Collection (ATCC). Next, when the cancer has a size of about 5-8 mm, the ionic-complex nanoparticles of HS-Cy5.5/GC-BHQ3 were injected into veins of the mice tails. Then, heparanase expression was imaged by using an eXplore Optix image device.
It is known that the SCC7 cancer tissues express a large amount of heparanase. Accordingly, in order to test the ability of a heparanase inhibitor to inhibit heparanase, 20 mg/kg of heparin was injected into cancer tissues. After lapse of 20 minutes, the ionic-complex nanoparticles of HS-Cy5.5/GC-BHQ3 were injected into veins of the mice tails. Then, decrease of heparanase activities was imaged by using the explore Optix image device.

[2] = target: T2, heparanase (Homo sapiens, UniProt Q9Y251); test: Fluorescence recovery of nanoparticles treated with heparanase or heparanase+inhibitor; format: biochemical; details: 37[…], one hour; HS-Cy5.5/GC-BHQ3 probe
T2 sequence (Q9Y251 158-543 limits assumed): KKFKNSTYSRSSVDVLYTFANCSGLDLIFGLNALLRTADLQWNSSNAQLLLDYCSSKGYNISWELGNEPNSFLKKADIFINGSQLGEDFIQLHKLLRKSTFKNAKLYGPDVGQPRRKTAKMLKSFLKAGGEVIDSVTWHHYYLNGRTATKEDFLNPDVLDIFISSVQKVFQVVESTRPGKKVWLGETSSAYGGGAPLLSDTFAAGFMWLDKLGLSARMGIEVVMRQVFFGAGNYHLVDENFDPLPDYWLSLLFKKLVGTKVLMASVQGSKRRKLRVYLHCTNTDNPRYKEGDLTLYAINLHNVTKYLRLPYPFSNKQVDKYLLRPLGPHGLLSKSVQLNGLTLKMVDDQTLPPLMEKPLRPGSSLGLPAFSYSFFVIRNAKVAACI
T2 sequence (Q9Y251 36-109 limits assumed): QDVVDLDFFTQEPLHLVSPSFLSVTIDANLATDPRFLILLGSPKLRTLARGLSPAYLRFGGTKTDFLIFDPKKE
Protocol: By using the ionic-complex nanoparticles of HS-Cy5.5/GC-BHQ3 prepared in the preparation example 1, heparanase activities with or without heparanase inhibitor treatment were imaged.
The ionic-complex nanoparticles of HS-Cy5.5/GC-BHQ3 prepared in the preparation example 1 were treacted with ‘heparanase’ and ‘heparanase+inhibitor’ at a temperature of 37 °C for one hour, and then fluorescence emission therefrom by an enzyme degradation reaction was observed. After lapse of one hour, the fluorescence of the nanoparticles was observed by using a Kodak Image Station 4000MM Digital Imaging System mounted with a charge coupled device (CCD) camera. […] From the result, it could be seen that the ionic-complex nanoparticles of HS-Cy5.5/GC-BHQ3 could image heparanase enzymes, and could be applied to a composition for screening drugs of heparanase inhibitors or effects of drugs.

heparin
fluorescence intensity in cancer tissues of heparanase inhibitor-injected group [1]: decreased fluorescence intensity
fluorescence intensity of nanoparticles when 'heparanase+inhibitor' were treated [2]: decreased
